One data set relates to GFP-HEK cells. The data set can be described thus: Cas9 mRNA and sgRNA delivery, GFP knockout (GFP− cells). Format: cell-based. Conditions: Cas9 mRNA and sgRNA 1/1; lipidoid/mRNA=10/1; [mRNA]=0.86 μg mL^−1; 48 h. Here is the method: Next, the possibility of using OCholB LNPs to deliver mRNA for genome editing (Cre-loxP and CRISPR/Cas9 systems) purposes was examined. First, Cre mRNA was complexed with OCholB LNPs and tested against HeLa-DsRed cells. The HeLa-DsRed cells express red fluorescent protein, DsRed, only upon Cre protein-mediated recombination. After 24 h of incubation with mRNA/LNPs (lipidoid/mRNA=10/1; [mRNA]=0.86 μg mL^−1), the DsRed^+ cell portions were determined by flow cytometry. […] Then the Cas9 mRNA that expresses a version of Streptococcus pyogenes SF370 Cas9 protein with an N and C terminal nuclear localization signal (NLS) were loaded into LNPs, along with single-guide RNA (sgRNA) that targets a sequence on GFP gene. GFP-HEK cells which steadily express GFP proteins were used a cell model in this case. GFP-cells, indicating a successful Cas9-mediated knockdown of GFP expression, were analyzed using flow cytometry. […] This was also found to be applicable to protein delivery in our previous studies.
In this context, two strategies were tested, i.e., synthesizing new OCholB-tailed lipidoids with single tail rather than full substitution, and adding helper lipids (phospholipids) into fully substituted OCholB LNPs. Single-tailed lipidoids, 75-OCholB-1, 76-OCholB-1 and […] at first following similar protocols as described before and characterized by ESI-MS ([75-OCholB-1+H]^+, 736.55; [76-OCholB-1+H]^+, 734.64; [77-OCholB-1+H]^+, 748.73). Nanoparticles were than fabricated using the same sonication/vortex procedures and the obtained LNPs were measured by DLS (75-OCholB-1, <Dh>=302.6 nm, μ2/I^2=0.30; 76-OCholB-1, <Dh>=294.5 nm, μ2/I^2=0.30; 77-OCholB-1, <Dh>=254.2 nm, μ2/I^2=0.33). […] 69.4%, 72.5% and 68.9% of GFP^+ cells were determined for mRNA/75-OCholB-1, mRNA/76-OCholB-1 and mRNA/77-OCholB-1 treated HeLa cells, respectively. Cre mRNA could also be efficiently delivered into HeLa-DsRed cells, as 87.3% (mRNA/75-OCholB-1), 82.8% (mRNA/76-OCholB-1) and 81.5% (mRNA/77-OCholB-1) of cells were determined to be DsRed^+ after 24 h of exposure (FIG. 14G). […]

Data set [1] can be described thus: In vivo toxicity of blank OCholB LNPs (body weight, serum biochemistry). More on the design: species or system Balb/c mice. Conditions: blank LNPs 50 μg per injection, tail vein; for serum concentrations of creatinine, urea, AST and ALT: day 1 and 5, blood at day 14; for body weight vs untreated control group: day 1 and day 5, 14 days. Here is the method:
For in vivo toxicity studies, the body weights of untreated and nanoparticles injected Balb/c mice (housed in a temperature and humidity controlled facility with a 12 h light/dark cycle) were measured at day 1, 3, 5, 7, 9, 11, 13 and 14. Biological functions of kidney and liver were examined by the serum biochemical tests and concentrations of creatinine, urea, aspartate aminotransferase (AST), and alanine aminotransferase (ALT) were measured using corresponding detection kits (MilliporeSigma) following manufacturers' protocols.
The in vivo toxicity of the OCholB LNPs was further examined by measuring body weight change and biological functions of kidney and liver through serum biochemical tests using Balb/c mice. 4-6 weeks old Balb/c mice (n=3) were injected with blank 75-OCholB, 76-OCholB and 77-OCholB LNPs (50 μg LNPs for each injection) through tail vein at day 1 and day 5, body weights were monitored for 14 days, and blood were collected and analyzed at day 14.

`CCN(CC)CCN(CCC(=O)OCCSSCCNC(=O)OC1CCC2(C)C(=CCC3C2CCC2(C)C(C(C)CCCC(C)C)CCC32)C1)CCC(=O)OCCSSCCNC(=O)OC1CCC2(C)C(=CCC3C2CCC2(C)C(C(C)CCCC(C)C)CCC32)C1` (stereo not drawn) [Lipidoid 75-OCholB]: the “GFP^− cells” value in the data set with GFP-HEK cells was found to be 6.1%. In data set [1], the “serum concentrations of creatinine, urea, AST and ALT” value (shortened to “serum concentrations of creatinine”) is on record as “very similar to control mice”; the “body weight vs untreated control group” value is “negligible differences”.

As for `CC(C)CCCC(C)C1CCC2C3CC=C4CC(OC(=O)NCCSSCCOC(=O)CCN(CCC(=O)OCCSSCCNC(=O)OC5CCC6(C)C(=CCC7C6CCC6(C)C(C(C)CCCC(C)C)CCC76)C5)CCN5CCCC5)CCC4(C)C3CCC12C` (stereo not drawn) [Lipidoid 76-OCholB], the “GFP^− cells” value with GFP-HEK cells is 7.7%. In data set [1], the “serum concentrations of creatinine” value was “very similar to control mice”; the “body weight vs untreated control group” value is “negligible differences”.

For the molecule `CC(C)CCCC(C)C1CCC2C3CC=C4CC(OC(=O)NCCSSCCOC(=O)CCN(CCC(=O)OCCSSCCNC(=O)OC5CCC6(C)C(=CCC7C6CCC6(C)C(C(C)CCCC(C)C)CCC76)C5)CCC5CCCN5C)CCC4(C)C3CCC12C` (stereo not drawn) [Lipidoid 77-OCholB], the “GFP^− cells” value in the data set with GFP-HEK cells is given as 4.4%. In data set [1], the “serum concentrations of creatinine” value is given as “very similar to control mice”; the “body weight vs untreated control group” value is on record as “negligible differences”.

The values are drawn from patent US12133855B2, “Lipid-like nanocomplexes and uses thereof” (Trustees of Tufts College, priority 2018, dated 2024).
